≈ marks a conversion by molar mass, not a printed value. Calls of active or inactive are those of the source. The rule behind the calls is not given here.
Tests used:
Type in all cases: functional
Candida albicans [1] = test: Antifungal activity against Candida albicans MTCC 227 after 24 hrs by well diffusion method; details: MTCC 227, 24 h
Raoultella planticola = test: Antibacterial activity against Klebsiella planticola MTCC 530 after 24 hrs by well diffusion method
Candida parapsilosis [2] = test: Antifungal activity against Candida parapsilosis MTCC 1744 after 24 hrs by well diffusion method
Pichia sporocuriosa [3] = test: Fungicidal activity against Issatchenkia hanoiensis MTCC 4755 incubated for 24 hrs followed by transfer of microbial suspension to Sabouraud dextrose agar plates and measured after 24 hrs post transfer; details: MTCC 4755, 24 h
Candida albicans [4] = test: Fungicidal activity against Candida albicans MTCC 854 incubated for 24 hrs followed by transfer of microbial suspension to Sabouraud dextrose agar plates and measured after 24 hrs post transfer; details: MTCC 854, 24 h
Candida albicans [5] = test: Antifungal activity against Candida albicans MTCC 183 after 24 hrs by well diffusion method; details: MTCC 183, 24 h
Nakaseomyces glabratus [6] = test: Antifungal activity against Candida glabrata MTCC 3019 after 24 hrs by well diffusion method; details: MTCC 3019, 24 h
Pseudomonas aeruginosa = test: Antibacterial activity against Pseudomonas aeruginosa MTCC 2453 after 24 hrs by well diffusion method
Candida albicans [7] = test: Fungicidal activity against Candida albicans MTCC 4748 incubated for 24 hrs followed by transfer of microbial suspension to Sabouraud dextrose agar plates and measured after 24 hrs post transfer
Pichia sporocuriosa [8] = test: Antifungal activity against Issatchenkia hanoiensis MTCC 4755 after 24 hrs by well diffusion method; details: MTCC 4755, 24 h
Staphylococcus aureus [9] = test: Antibacterial activity against Staphylococcus aureus MLS16 MTCC 2940 after 24 hrs by well diffusion method
Candida albicans [10] = test: Antifungal activity against Candida albicans MTCC 4748 after 24 hrs by well diffusion method
Candida albicans [11] = test: Fungicidal activity against Candida albicans MTCC 227 incubated for 24 hrs followed by transfer of microbial suspension to Sabouraud dextrose agar plates and measured after 24 hrs post transfer; details: MTCC 227, 24 h
Candida albicans [12] = test: Fungicidal activity against Candida albicans MTCC 3017 incubated for 24 hrs followed by transfer of microbial suspension to Sabouraud dextrose agar plates and measured after 24 hrs post transfer; details: MTCC 3017, 24 h
Candida parapsilosis [13] = test: Fungicidal activity against Candida parapsilosis MTCC 1744 incubated for 24 hrs followed by transfer of microbial suspension to Sabouraud dextrose agar plates and measured after 24 hrs post transfer
Candida albicans [14] = test: Antifungal activity against Candida albicans MTCC 3017 after 24 hrs by well diffusion method; details: MTCC 3017, 24 h
Candida albicans [15] = test: Fungicidal activity against Candida albicans MTCC 183 incubated for 24 hrs followed by transfer of microbial suspension to Sabouraud dextrose agar plates and measured after 24 hrs post transfer; details: MTCC 183, 24 h
Candida albicans [16] = test: Antifungal activity against Candida albicans MTCC 7315 after 24 hrs by well diffusion method; details: MTCC 7315, 24 h
Escherichia coli = test: Antibacterial activity against Escherichia coli MTCC 739 after 24 hrs by well diffusion method
Candida albicans [17] = test: Antifungal activity against Candida albicans MTCC 854 after 24 hrs by well diffusion method; details: MTCC 854, 24 h
Micrococcus luteus = test: Antibacterial activity against Micrococcus luteus MTCC 2470 after 24 hrs by well diffusion method
Candida albicans [18] = test: Fungicidal activity against Candida albicans MTCC 1637 incubated for 24 hrs followed by transfer of microbial suspension to Sabouraud dextrose agar plates and measured after 24 hrs post transfer
Pichia kudriavzevii [19] = test: Antifungal activity against Candida krusei MTCC 3020 after 24 hrs by well diffusion method
Staphylococcus aureus [20] = test: Antibacterial activity against Staphylococcus aureus MTCC 96 after 24 hrs by well diffusion method
Candida albicans [21] = test: Fungicidal activity against Candida albicans MTCC 3018 incubated for 24 hrs followed by transfer of microbial suspension to Sabouraud dextrose agar plates and measured after 24 hrs post transfer
Candida albicans [22] = test: Antifungal activity against Candida albicans MTCC 1637 after 24 hrs by well diffusion method
[Candida] aaseri [23] = Fungicidal activity against Candida aaseri MTCC 1962 incubated for 24 hrs followed by transfer of microbial suspension to Sabouraud dextrose agar plates and measured after 24 hrs post transfer; details: Yamadazyma aaseri, MTCC 1962, 24 h
Candida albicans [24] = test: Fungicidal activity against Candida albicans MTCC 3958 incubated for 24 hrs followed by transfer of microbial suspension to Sabouraud dextrose agar plates and measured after 24 hrs post transfer
Pichia kudriavzevii [25] = test: Fungicidal activity against Candida krusei MTCC 3020 incubated for 24 hrs followed by transfer of microbial suspension to Sabouraud dextrose agar plates and measured after 24 hrs post transfer
Bacillus subtilis = test: Antibacterial activity against Bacillus subtilis MTCC 121 after 24 hrs by well diffusion method
Nakaseomyces glabratus [26] = test: Fungicidal activity against Candida glabrata MTCC 3019 incubated for 24 hrs followed by transfer of microbial suspension to Sabouraud dextrose agar plates and measured after 24 hrs post transfer; details: MTCC 3019, 24 h
[Candida] aaseri [27] = Antifungal activity against Candida aaseri MTCC 1962 after 24 hrs by well diffusion method; details: Yamadazyma aaseri, MTCC 1962, 24 h
Candida albicans [28] = test: Antifungal activity against Candida albicans MTCC 3958 after 24 hrs by well diffusion method
Candida albicans [29] = test: Antifungal activity against Candida albicans MTCC 3018 after 24 hrs by well diffusion method
Candida albicans [30] = test: Fungicidal activity against Candida albicans MTCC 7315 incubated for 24 hrs followed by transfer of microbial suspension to Sabouraud dextrose agar plates and measured after 24 hrs post transfer; details: MTCC 7315, 24 h

O=C(c1nc(-c2ccccc2)c2c(C(F)(F)F)cc(-c3ccccc3)nc2n1)N1CCCC1
MIC (Candida albicans [1]): 15.6 µg/mL (≈ 34.8 µM) | MIC (Raoultella planticola): inactive | MIC (Candida parapsilosis [2]; MTCC 1744, 24 h): 15.6 µg/mL (≈ 34.8 µM) | MFC (Pichia sporocuriosa [3]): 62.5 µg/mL (≈ 139 µM) | MFC (Candida albicans [4]): 15.6 µg/mL (≈ 34.8 µM) | MIC (Candida albicans [5]): 7.8 µg/mL (≈ 17.4 µM) | MIC (Nakaseomyces glabratus [6]): 31.2 µg/mL (≈ 69.6 µM) | MIC (Pseudomonas aeruginosa): inactive | MFC (Candida albicans [7]; MTCC 4748, 24 h): 62.5 µg/mL (≈ 139 µM) | MIC (Pichia sporocuriosa [8]): 31.2 µg/mL (≈ 69.6 µM) | MIC (Staphylococcus aureus [9]): inactive | MIC (Candida albicans [10]; MTCC 4748, 24 h): 62.5 µg/mL (≈ 139 µM) | MFC (Candida albicans [11]): 31.2 µg/mL (≈ 69.6 µM) | MFC (Candida albicans [12]): 15.6 µg/mL (≈ 34.8 µM) | MFC (Candida parapsilosis [13]; Lodderomyces parapsilosis, MTCC 1744, 24 h): 15.6 µg/mL (≈ 34.8 µM) | MIC (Candida albicans [14]): 7.8 µg/mL (≈ 17.4 µM) | MFC (Candida albicans [15]): 15.6 µg/mL (≈ 34.8 µM) | MIC (Candida albicans [16]): 15.6 µg/mL (≈ 34.8 µM) | MIC (Escherichia coli): inactive | MIC (Candida albicans [17]): 7.8 µg/mL (≈ 17.4 µM) | MIC (Micrococcus luteus): inactive | MFC (Candida albicans [18]; MTCC 1637, 24 h): 15.6 µg/mL (≈ 34.8 µM) | MIC (Pichia kudriavzevii [19]): inactive | MIC (Staphylococcus aureus [20]): inactive | MFC (Candida albicans [21]; MTCC 3018, 24 h): 62.5 µg/mL (≈ 139 µM) | MIC (Candida albicans [22]; MTCC 1637, 24 h): 7.8 µg/mL (≈ 17.4 µM) | MFC ([Candida] aaseri [23]): 15.6 µg/mL (≈ 34.8 µM) | MFC (Candida albicans [24]; MTCC 3958, 24 h): 62.5 µg/mL (≈ 139 µM) | MFC (Pichia kudriavzevii [25]): inactive | MIC (Bacillus subtilis): inactive | MFC (Nakaseomyces glabratus [26]): 31.2 µg/mL (≈ 69.6 µM) | MIC ([Candida] aaseri [27]): 7.8 µg/mL (≈ 17.4 µM) | MIC (Candida albicans [28]; MTCC 3958, 24 h): 31.2 µg/mL (≈ 69.6 µM) | MIC (Candida albicans [29]; MTCC 3018, 24 h): 31.2 µg/mL (≈ 69.6 µM) | MFC (Candida albicans [30]): 31.2 µg/mL (≈ 69.6 µM)

CCCNC(=O)c1nc(-c2ccccc2)c2c(C(F)(F)F)cc(-c3ccccc3)nc2n1
MIC (Candida albicans [1]): 31.2 µg/mL (≈ 71.5 µM) | MIC (Raoultella planticola): inactive | MIC (Candida parapsilosis [2]): inactive | MFC (Pichia sporocuriosa [3]): 62.5 µg/mL (≈ 143 µM) | MFC (Candida albicans [4]): 62.5 µg/mL (≈ 143 µM) | MIC (Candida albicans [5]): 15.6 µg/mL (≈ 35.7 µM) | MIC (Nakaseomyces glabratus [6]): 7.8 µg/mL (≈ 17.9 µM) | MIC (Pseudomonas aeruginosa): inactive | MFC (Candida albicans [7]): inactive | MIC (Pichia sporocuriosa [8]): 31.2 µg/mL (≈ 71.5 µM) | MIC (Staphylococcus aureus [9]): inactive | MIC (Candida albicans [10]): inactive | MFC (Candida albicans [11]): 31.2 µg/mL (≈ 71.5 µM) | MFC (Candida albicans [12]): 15.6 µg/mL (≈ 35.7 µM) | MFC (Candida parapsilosis [13]): inactive | MIC (Candida albicans [14]): 15.6 µg/mL (≈ 35.7 µM) | MFC (Candida albicans [15]): 31.2 µg/mL (≈ 71.5 µM) | MIC (Candida albicans [16]): 15.6 µg/mL (≈ 35.7 µM) | MIC (Escherichia coli): inactive | MIC (Candida albicans [17]): 31.2 µg/mL (≈ 71.5 µM) | MIC (Micrococcus luteus): inactive | MFC (Candida albicans [18]): inactive | MIC (Pichia kudriavzevii [19]; MTCC 3020, 24 h): 15.6 µg/mL (≈ 35.7 µM) | MIC (Staphylococcus aureus [20]): inactive | MFC (Candida albicans [21]): inactive | MIC (Candida albicans [22]): inactive | MFC ([Candida] aaseri [23]): 15.6 µg/mL (≈ 35.7 µM) | MFC (Candida albicans [24]): inactive | MFC (Pichia kudriavzevii [25]; MTCC 3020, 24 h): 31.2 µg/mL (≈ 71.5 µM) | MIC (Bacillus subtilis): inactive | MFC (Nakaseomyces glabratus [26]): 15.6 µg/mL (≈ 35.7 µM) | MIC ([Candida] aaseri [27]): 15.6 µg/mL (≈ 35.7 µM) | MIC (Candida albicans [28]): inactive | MIC (Candida albicans [29]): inactive | MFC (Candida albicans [30]): 31.2 µg/mL (≈ 71.5 µM)
